In patent US20240336659A1, “CELL-PENETRATING PEPTIDE, ANTI-CANCER PEPTIDE, AND PHARMACEUTICAL COMPOSITION FOR PREVENTING OR TREATING CANCER, COMPRISING SAME” (ONECUREGEN CO., LTD., priority 2021, published 2024):
Positions of bridges follow the written chain, without caps; N, C: chain ends. Residues, ends and D or L forms follow the SMILES beside them. No end group written: not given here.

Tests used:
[1] = system: lung normal cell line WI38; settings: WI38, 30 μM and 60 μM
Description: (§1) To analyze the cytotoxicity of cell therapeutic peptide fragments on normal cell lines, lung normal cell lines WI38 and CCD39 were treated with OCP9 (SEQ ID NO: 16), OCP9-VGLLIS84-7CC (SEQ ID NO: 44), OCP9-VGLLIS84-9CC (SEQ ID NO: 46) and OCP9-VGLL1S84-11CC (SEQ ID NO: 48) at 30 μM and 60 μM, respectively, and the growth degrees of the cell lines were evaluated.

[2] = system: lung normal cell line CCD39; settings: CCD39, 30 μM and 60 μM
Description: as §1

[3] = system: stomach cancer cell line NUGC3; assay: Cell growth inhibition (sulforhodamine B staining); type: cell-based; settings: for cancer cell growth inhibitory effect: NUGC3, 10 μM screening of Table 4 peptides; for cell permeability (as concluded from the growth inhibition screening): NUGC3, 10 μM screening; for cancer cell growth inhibitory efficacy: NUGC3, treated for each concentration
Description: (§2) Specifically, in order to confirm cell growth ability, a stomach cancer cell line NUGC3 and a breast cancer cell line SK-BR-3 were each subcultured in a 96-well plate, and the next day, peptide fragments Con, 7, and CC of Table 2 were treated with 100 μM each to the cell lines. After 72 hours, the cells were immobilized with a 10% trichloroacetic acid solution, and then stained the cell with a 0.4% sulforhodamine B solution for 1 hour, washed with acetic acid, and dried. Thereafter, the dried cells were dissolved in a 10 mM Tris solution and absorbance was measured at 510 nm using an ELISA plate reader.
In order to compare the cancer cell growth inhibitory effects of cancer therapeutic peptides according to cell-penetrating peptides, the stomach cancer cell line NUGC3 was treated with 10 μM each of cancer therapeutic peptide fragments in Table 4, and the cancer cell growth inhibitory effects were screened in the same manner as in Example 1.
Specifically, in order to confirm the cancer cell inhibition enhancing effect by enhancing the cell permeability of OCP5 among the novel synthesized CPPs, a cancer therapeutic peptide fragment represented by SEQ ID NO: 6 including the existing TAT and a cancer therapeutic peptide fragment represented by SEQ ID NO: 31 including the novel synthesized OCP5 were used. The stomach cancer cell lines NUGC3 and AGS, the breast cancer cell line SK-BR-3, and the pancreatic cancer cell line Capan-1 were treated with 25 μM SEQ ID NO: 6 and 100 μM SEQ ID NO: 31 for 72 hours, respectively, and the cancer cell growth inhibitory effects were compared in the same manner as in Example 1. […] Through this, it was confirmed that the novel CPP may be applied more effectively than the existing TAT to inhibit the cancer cell growth by the anticancer peptides.
(§3) To analyze the cancer cell growth inhibitory effect according to a length of the anticancer peptide fragment, OCP9-VGLLIS84-7 (SEQ ID NO: 43), OCP9-VGLLIS84-9CC (SEQ ID NO: 46), and OCP9-VGLLIS84-15 (SEQ ID NO: 49) were treated for each concentration to analyze the growth inhibitory effects of stomach cancer cell lines NUGC3 and NCI-N87. When stomach cancer cells were treated with cancer therapeutic peptides, the cancer cell growth inhibitory efficacy was shown in a concentration-dependent manner. In addition, it was confirmed that the growth inhibitory effect on the stomach cancer cell lines increased as the length of the anticancer peptide fragment increased (FIG. 7).
Specifically, the cancer cell growth inhibitory effect according to partial or entire cyclization of the anticancer peptide fragment was analyzed. The stomach cancer cell line NUGC3 was treated with a CPP fragment OCP9 (SEQ ID NO: 16), a partially cyclized sequence […] (SEQ ID NO: 33), or a sequence OCP9-VGLLIS84-7CC (SEQ ID NO: 40) including an entirely cyclized anticancer peptide at different concentrations of 1, 2.5, 5, 10, and 20 μM, respectively, and the cancer cell growth inhibitory effects were compared in the same manner as in Example 1.

cell line NUGC3 = assay: Cell permeability of FITC-conjugated peptides by FACS; type: cell-based; settings: NUGC3, 1.5 or 2.5 μM FITC-conjugated peptide, 3 hours; compared to TAT
Description: To quantitatively measure the cell permeability of the novel synthesized cell-penetrating peptides, 1.5 or 2.5 μM FITC-conjugated peptides were administered to the cell line NUGC3 or the normal cell line WI38, and after 3 hours, the amounts of FITC present in the cells were measured by FACS.

[4] = system: stomach cancer cell lines NUGC3; assay: Mouse xenograft experiment (tumor formation); type: in vivo, Balb-c/nude mouse; settings: intraperitoneally 10 mg/kg once a day
Description: A mouse xenograft experiment was performed to analyze a tumor formation inhibitory effect of cancer therapeutic peptide fragments. Specifically, 5×10^6 stomach cancer cell lines NUGC3 were transplanted by subcutaneous injection into a flank site of a 6-week-old female Balb-c/nude mouse, and after one week (average tumor size 100 mm^3), Vehicle (0.9% saline), OCP5 (SEQ ID NO: 12), OCP5-VGLL1S84-15C (SEQ ID NO: 29), or OCP5-VGLL1S84-7C (SEQ ID NO: 33) was each administered intraperitoneally at 10 mg/kg once a day. Tumor size was measured with a digital caliper at 2-day intervals from the start of drug administration, and the tumor size (tumor size (mm^3)=long axis x short axis2) was calculated. The experiment was terminated when the average tumor size of the OCP5-administered group was 1,000 mm3, and then the tumor was extracted, and the tumor weight was measured.

[5] = system: stomach cancer cell line NCI-N87; assay: Cell growth inhibition (sulforhodamine B staining); type: cell-based; settings: NCI-N87, treated for each concentration
Description: as §2, §3

Q: Which results are given for `CC[C@H](C)[C@@H]1NC(=O)[C@H](CCCNC(=N)N)NC(=O)[C@H](Cc2ccccc2)NC(=O)[C@H]([C@@H](C)CC)NC(=O)[C@H]([C@@H](C)CC)NC(=O)[C@H](CO)NC(=O)[C@@H](N)CSSC[C@@H](C(=O)O)NC(=O)[C@H](CCCCN)NC(=O)[C@H]([C@@H](C)O)NC(=O)[C@H](Cc2c[nH]c3ccccc23)NC(=O)[C@@H]2CCCN2C(=O)[C@H](CO)NC(=O)[C@H](CO)NC(=O)[C@H](Cc2ccc(O)cc2)NC(=O)[C@H](CCCNC(=N)N)NC(=O)[C@H](CCCNC(=N)N)NC(=O)[C@H](CCCNC(=N)N)NC(=O)[C@H](CCCNC(=N)N)NC(=O)[C@H](CCCNC(=N)N)NC(=O)[C@H](Cc2ccccc2)NC1=O` [OCP9-VGLL1S84-7CC, CSIIFRIFRRRRR-YSSPWTKC] (HELM PEPTIDE1{C.S.I.I.F.R.I.F.R.R.R.R.R.Y.S.S.P.W.T.K.C}$PEPTIDE1,PEPTIDE1,1:R3-21:R3$$$V2.0)?
A: cytotoxicity (growth inhibitory or abnormal effect) [1]: no cytotoxicity; cytotoxicity (growth inhibitory or abnormal effect) [2]: no cytotoxicity

Q: Which results are given for `CC[C@H](C)[C@@H]1NC(=O)[C@H](CCCNC(=N)N)NC(=O)[C@H](Cc2ccccc2)NC(=O)[C@H]([C@@H](C)CC)NC(=O)[C@H]([C@@H](C)CC)NC(=O)[C@H](CO)NC(=O)[C@@H](N)CSSC[C@@H](C(=O)O)NC(=O)[C@H](CCCCN)NC(=O)[C@H]([C@@H](C)O)NC(=O)[C@H](Cc2c[nH]c3ccccc23)NC(=O)[C@@H]2CCCN2C(=O)[C@H](CO)NC(=O)[C@H](CO)NC(=O)[C@H](Cc2ccc(O)cc2)NC(=O)[C@H](CCCNC(=N)N)NC(=O)[C@H](Cc2c[nH]c3ccccc23)NC(=O)[C@H](CCCNC(=N)N)NC(=O)[C@H](CCCNC(=N)N)NC(=O)[C@H](CCCNC(=N)N)NC(=O)[C@H](CCCNC(=N)N)NC(=O)[C@H](CCCNC(=N)N)NC(=O)[C@H](Cc2ccccc2)NC1=O` [OCP9-VGLL1S84-9CC, CSIIFRIFRRRRR-WRYSSPWTKC] (HELM PEPTIDE1{C.S.I.I.F.R.I.F.R.R.R.R.R.W.R.Y.S.S.P.W.T.K.C}$PEPTIDE1,PEPTIDE1,1:R3-23:R3$$$V2.0)?
A: cytotoxicity (growth inhibitory or abnormal effect) [1]: no cytotoxicity; cytotoxicity (growth inhibitory or abnormal effect) [2]: no cytotoxicity

Q: What does the source list for `CC[C@H](C)[C@@H]1NC(=O)[C@H](CCCNC(=N)N)NC(=O)[C@H](Cc2ccccc2)NC(=O)[C@H]([C@@H](C)CC)NC(=O)[C@H]([C@@H](C)CC)NC(=O)[C@H](CO)NC(=O)[C@@H](N)CSSC[C@@H](C(=O)O)NC(=O)[C@H](CCCCN)NC(=O)[C@H]([C@@H](C)O)NC(=O)[C@H](Cc2c[nH]c3ccccc23)NC(=O)[C@@H]2CCCN2C(=O)[C@H](CO)NC(=O)[C@H](CO)NC(=O)[C@H](Cc2ccc(O)cc2)NC(=O)[C@H](CCCNC(=N)N)NC(=O)[C@H](Cc2c[nH]c3ccccc23)NC(=O)[C@H](CCC(N)=O)NC(=O)[C@H](CC(N)=O)NC(=O)[C@H](CCCNC(=N)N)NC(=O)[C@H](CCCNC(=N)N)NC(=O)[C@H](CCCNC(=N)N)NC(=O)[C@H](CCCNC(=N)N)NC(=O)[C@H](CCCNC(=N)N)NC(=O)[C@H](Cc2ccccc2)NC1=O` [OCP9-VGLL1S84-11CC, CSIIFRIFRRRRR-NQWRYSSPWTKC] (HELM PEPTIDE1{C.S.I.I.F.R.I.F.R.R.R.R.R.N.Q.W.R.Y.S.S.P.W.T.K.C}$PEPTIDE1,PEPTIDE1,1:R3-25:R3$$$V2.0)?
A: cytotoxicity (growth inhibitory or abnormal effect) [1]: no cytotoxicity; cytotoxicity (growth inhibitory or abnormal effect) [2]: no cytotoxicity

Q: For KKKKRKVRGDSI (OCP15), which “cancer cell growth inhibitory effect” value [3] is on record?
A: Its value is “excluding”.

Q: For KKKKRKVSIIFIRGD (OCP16), which “cancer cell growth inhibitory effect” value [3] is on record?
A: The value was “excluding”.

Q: With KKKKRKVSIIFRIF (OCP18) as the compound, how does the “intracellular permeability (amount of FITC in the cells)” value (cell line NUGC3) read?
A: The value was “significantly increased”.

Q: Which “cancer cell growth inhibitory effect” value [3] does the source give for KKKKRKVSIRGD (OCP17) here?
A: Its value is “excluding”.

Q: How did the “cancer cell growth inhibitory effect” value [3] turn out when RRRRRGDSIIF (OCP13) was run?
A: The value was “excluding”.

Q: RRRRRSIIFRGD (OCP12) was tested. Which “cancer cell growth inhibitory effect” value [3] did it give?
A: Its value is “excluding”.

Q: For SIIFRIFLHLQK (OCP1), which “cell permeability (as concluded from the growth inhibition screening)” value [3] is on record?
A: Its value is “increased”.

Q: How did the “cancer cell growth inhibitory effect” value [3] turn out when “SIIFRIFLHLQK-CYSSPWTKC (SIIFRIFLHLQKCYSSPWTKC; disulfide 13-21) [SEQ ID NO: 31]” was run?
A: Its value is “significant cancer cell growth inhibitory effect”.

Q: What does the source list for SIIFRIFLHLQKRRR (OCP5)?
A: cell permeability (as concluded from the growth inhibition screening) [3]: increased; cancer cell growth inhibitory effect [3]: increased; effect on tumor formation compared to the vehicle group [4]: did not affect the tumor formation; intracellular permeability (amount of FITC in the cells) (cell line NUGC3): significantly increased

Q: For SIIFRIFRRRRR (OCP9), which “intracellular permeability (amount of FITC in the cells)” value (cell line NUGC3) is on record?
A: Its value is “significantly increased”.

Q: How did the “cancer cell growth inhibitory efficacy” value [3] turn out when “SIIFRIFRRRRR-PNQWRYSSPWTKPQP (SIIFRIFRRRRRPNQWRYSSPWTKPQP; OCP9-VGLL1S84-15) [OCP9-VGLLIS84-15]” was run?
A: Its value is “concentration-dependent”.

Q: What about the “cancer cell growth inhibitory efficacy” value [5] of the same compound?
A: The value was “concentration-dependent”.

Q: Which results are given for “SIIFRIFRRRRR-YSSPWTK (SIIFRIFRRRRRYSSPWTK; OCP9-VGLL1S84-7) [OCP9-VGLLIS84-7]”?
A: cancer cell growth inhibitory efficacy [3]: concentration-dependent; cancer cell growth inhibitory efficacy [5]: concentration-dependent
